The text below walks through data of patent US20240174618A1, “SUBSTITUTED (2-HETEROARYLOXYPHENYL)SULFONATES, SALTS THEREOF AND THEIR USE AS HERBICIDAL AGENTS” (Bayer Aktiengesellschaft, priority 2021, published 2024).

Each structure is given as a SMILES string.

Assay type in all cases: in vivo
One data set deals with Setaria viridis (SETVI). As to the kind of experiment: C. Herbicidal pre-emergence efficacy, SETVI. The following applies: scored after about 3 weeks. The gist of the method:
(§1)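 Pre-emergence test: formulated compounds sprayed as aqueous suspension or emulsion with 0.5% additive at 600 l/ha onto soil covering sown seeds, at rates corresponding to 320 g/ha or less. After about 3 weeks in greenhouse, efficacy scored visually as percent versus untreated controls (100% = plants dead).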

Another data set has as its system Lolium rigidum (LOLRI). As to the kind of experiment: C. Herbicidal pre-emergence efficacy, LOLRI. The following applies: scored after about 3 weeks. The essentials: as §1
In data set [1] the test system is Polygonum convolvulus (POLCO). Put plainly: E. Herbicidal post-emergence efficacy, POLCO. The essentials: (§2)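 Greenhouse post-emergence spray, one-leaf stage (2–3 wk after sowing, sandy loam); WP/EC formulation, aqueous + 0.5% additive, 600 l/ha water; rates 320 g/ha or less. Visual rating ~3 wk later vs untreated; 0% = control-like, 100% = dead.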
A further data set concerns Kochia scoparia (KCHSC). Put plainly: B. Herbicidal post-emergence efficacy, KCHSC. Particulars: for Post-emergence efficacy against KCHSC in %: rated visually after about 3 weeks; for Post-emergence efficacy against KCHSC: 1280 g/ha. The gist of the method: (§3)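 First, seeds were sown in sandy loam and grown 2 to 3 weeks under controlled greenhouse conditions. Next, foliage at the one-leaf stage received the formulated compound in water with 0.5% additive (600 L/ha, 1280 g/ha or less). Finally, damage was rated visually after about 3 weeks against untreated plants.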

Data set [2] has as its system Viola tricolor (VIOTR). Put plainly: C. Herbicidal pre-emergence efficacy, VIOTR. The gist of the method: as §1
For data set [3], the system named is Alopecurus myosuroides (ALOMY). As to the kind of experiment: C. Herbicidal pre-emergence efficacy, ALOMY. Particulars: scored after about 3 weeks. The gist of the method: as §1
Data set [4] has as its system Viola tricolor (VIOTR). Put plainly: E. Herbicidal post-emergence efficacy, VIOTR. The essentials: as §2
For the next data set, the system named is Poa annua (POAAN). Put plainly: B. Herbicidal post-emergence efficacy, POAAN. The essentials:
as §3

The test system of data set [5] is Triticum aestivum (TRZAS). As to the kind of experiment: F. Post-emergence effect on useful plants, TRZAS. The following applies: useful plant, application rate 80 g/ha. The gist of the method:
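Crop plants grown in sandy loam in the greenhouse were sprayed at the one-leaf stage, 2-3 weeks after sowing, with WP or EC formulations plus 0.5% additive at 600 l/ha water. Damage was scored visually after about 3 weeks against untreated controls (0% = like control, 100% = dead).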

With `O=S(=O)(CCCCCl)Oc1ccccc1Oc1ncc(Cl)cn1` [Example I-15], the “Pre-emergence efficacy against SETVI” value in the data set with Setaria viridis (SETVI) (80 g/ha) is listed as 80%; in the data set on Setaria viridis (SETVI) (320 g/ha), 100%. The “Pre-emergence efficacy against LOLRI” value in the data set on Lolium rigidum (LOLRI) (320 g/ha) was 80%. Moreover, the “Post-emergence efficacy against POLCO in %” value came out at 80% in [1] (application rate 80 g/ha) and 100% in data set [1] (application rate 320 g/ha). For the same compound, the “Post-emergence efficacy against KCHSC in %” value in the data set on Kochia scoparia (KCHSC) (80 g/ha) and with Kochia scoparia (KCHSC) (320 g/ha) was 100% in each case. In the data set on Kochia scoparia (KCHSC), the “Post-emergence efficacy against KCHSC” value was 100%. The “Pre-emergence efficacy against VIOTR in %” value in the data set with Viola tricolor (VIOTR) [2] (application rate 80 g/ha) and in the data set on Viola tricolor (VIOTR) [2] (application rate 320 g/ha) was 100% throughout. For the same compound, in data set [3] (320 g/ha), the “Pre-emergence efficacy against ALOMY” value was found to be 90%. The “Post-emergence efficacy against VIOTR in %” value in the data set on Viola tricolor (VIOTR) [4] (application rate 80 g/ha) turned out to be 90%; in the data set on Viola tricolor (VIOTR) [4] (application rate 320 g/ha) it was 100%. Also, the “Post-emergence efficacy against POAAN” value with Poa annua (POAAN) (320 g/ha) and in the data set with Poa annua (POAAN) (1280 g/ha) was 90% each time.
With `O=S(=O)(CCCC(F)(F)F)Oc1ccccc1Oc1ncc(Cl)cn1` [Example I-10], the “Pre-emergence efficacy against SETVI” value in the data set on Setaria viridis (SETVI) (80 g/ha) and with Setaria viridis (SETVI) (320 g/ha) was 100% each time. The figures for the “Pre-emergence efficacy against LOLRI” value in the data set with Lolium rigidum (LOLRI) (80 g/ha) and with Lolium rigidum (LOLRI) (320 g/ha) were 90% and 100%, respectively. For the same compound, the entries for the “Post-emergence efficacy against POLCO in %” value in data set [1] (application rate 80 g/ha) and in data set [1] (application rate 320 g/ha) were 90% and 100%, respectively. The “Post-emergence efficacy against KCHSC in %” value in the data set on Kochia scoparia (KCHSC) (80 g/ha) and in the data set on Kochia scoparia (KCHSC) (320 g/ha) was 90% in each case. In the data set on Kochia scoparia (KCHSC), the “Post-emergence efficacy against KCHSC” value is reported as 90%. The results for the “Pre-emergence efficacy against VIOTR in %” value in the data set on Viola tricolor (VIOTR) [2] (application rate 80 g/ha) and with Viola tricolor (VIOTR) [2] (application rate 320 g/ha) were 90% and 100%, respectively. The “Pre-emergence efficacy against ALOMY” value in data set [3] (80 g/ha) and in data set [3] (320 g/ha) was 100% each time. Besides, the “Post-emergence efficacy against VIOTR in %” value in the data set on Viola tricolor (VIOTR) [4] (application rate 80 g/ha) was determined as 90%; in the data set on Viola tricolor (VIOTR) [4] (application rate 320 g/ha), 100%. The “Post-emergence efficacy against POAAN” value in the data set on Poa annua (POAAN) (1280 g/ha) is recorded as 90%.
For `O=S(=O)(CCC1CC1)Oc1c(F)cccc1Oc1ncc(Cl)cn1` [Example I-55], the results for the “Pre-emergence efficacy against SETVI” value in the data set on Setaria viridis (SETVI) (80 g/ha) and in the data set on Setaria viridis (SETVI) (320 g/ha) were 80% and 90%, respectively. The “Pre-emergence efficacy against LOLRI” value with Lolium rigidum (LOLRI) (320 g/ha) stood at 90%. Besides, the “Post-emergence efficacy against POLCO in %” value in [1] (application rate 80 g/ha) was determined as 90%; in data set [1] (application rate 320 g/ha), 100%. Moreover, the “Post-emergence efficacy against KCHSC in %” value in the data set with Kochia scoparia (KCHSC) (320 g/ha) worked out at 90%. In addition, in the data set with Kochia scoparia (KCHSC), the “Post-emergence efficacy against KCHSC” value turned out to be 90%. For the same compound, the “Pre-emergence efficacy against VIOTR in %” value in the data set with Viola tricolor (VIOTR) [2] (application rate 320 g/ha) was determined as 100%. In the data set on Viola tricolor (VIOTR) [4] (application rate 320 g/ha), the “Post-emergence efficacy against VIOTR in %” value is recorded as 80%. For the same compound, the “Post-emergence efficacy against POAAN” value in the data set with Poa annua (POAAN) (320 g/ha) and in the data set on Poa annua (POAAN) (1280 g/ha) was 90% in each case. In addition, in [5], the “Post-emergence efficacy against TRZAS in %” value was 20%.
Turning to `O=S(=O)(CCCC(F)(F)F)Oc1c(F)cccc1Oc1ncc(F)cn1` [Example I-42], the “Pre-emergence efficacy against SETVI” value with Setaria viridis (SETVI) (80 g/ha) and in the data set on Setaria viridis (SETVI) (320 g/ha) was 100% in each case. The “Pre-emergence efficacy against LOLRI” value with Lolium rigidum (LOLRI) (80 g/ha) and with Lolium rigidum (LOLRI) (320 g/ha) was 100% in each case. Also, the “Post-emergence efficacy against POLCO in %” value in data set [1] (application rate 80 g/ha) and in data set [1] (application rate 320 g/ha) was 100% in each case. Moreover, the “Post-emergence efficacy against KCHSC in %” value in the data set with Kochia scoparia (KCHSC) (80 g/ha) stood at 90%; with Kochia scoparia (KCHSC) (320 g/ha), 100%. For the same compound, in the data set with Kochia scoparia (KCHSC), the “Post-emergence efficacy against KCHSC” value stood at 100%. For the same compound, the “Pre-emergence efficacy against VIOTR in %” value in the data set with Viola tricolor (VIOTR) [2] (application rate 80 g/ha) and in the data set with Viola tricolor (VIOTR) [2] (application rate 320 g/ha) was 100% in each case. For the same compound, the “Pre-emergence efficacy against ALOMY” value in data set [3] (80 g/ha) and in [3] (320 g/ha) was 100% throughout. Also, the “Post-emergence efficacy against VIOTR in %” value in the data set on Viola tricolor (VIOTR) [4] (application rate 80 g/ha) and in the data set with Viola tricolor (VIOTR) [4] (application rate 320 g/ha) was 100% in each case.
In the case of `CCCCS(=O)(=O)Oc1ccccc1Oc1ncc(Cl)cn1` [Example I-6], the figures for the “Pre-emergence efficacy against SETVI” value with Setaria viridis (SETVI) (80 g/ha) and with Setaria viridis (SETVI) (320 g/ha) were 90% and 100%, respectively. In addition, the “Pre-emergence efficacy against LOLRI” value with Lolium rigidum (LOLRI) (80 g/ha) stood at 80%; in the data set with Lolium rigidum (LOLRI) (320 g/ha), 100%. Further, the entries for the “Post-emergence efficacy against POLCO in %” value in data set [1] (application rate 80 g/ha) and in [1] (application rate 320 g/ha) were 90% and 100%, respectively. Also, the “Post-emergence efficacy against KCHSC in %” value in the data set with Kochia scoparia (KCHSC) (80 g/ha) and in the data set on Kochia scoparia (KCHSC) (320 g/ha) was 90% in each case. For the same compound, the “Post-emergence efficacy against KCHSC” value with Kochia scoparia (KCHSC) is 90%. Besides, the “Pre-emergence efficacy against VIOTR in %” value in the data set with Viola tricolor (VIOTR) [2] (application rate 80 g/ha) is 80%; in the data set with Viola tricolor (VIOTR) [2] (application rate 320 g/ha), 90%. Moreover, the “Pre-emergence efficacy against ALOMY” value in data set [3] (80 g/ha) is reported as 80%; in data set [3] (320 g/ha) it was 90%. For the same compound, the “Post-emergence efficacy against VIOTR in %” value was determined as 80% in the data set with Viola tricolor (VIOTR) [4] (application rate 80 g/ha) and 90% in the data set on Viola tricolor (VIOTR) [4] (application rate 320 g/ha). Further, the “Post-emergence efficacy against POAAN” value in the data set with Poa annua (POAAN) (1280 g/ha) is listed as 100%.
On to `O=S(=O)(CC1CC(F)(F)C1)Oc1c(F)cccc1Oc1ncc(Cl)cn1` [Example I-53], for which the “Pre-emergence efficacy against SETVI” value in the data set with Setaria viridis (SETVI) (80 g/ha) and in the data set with Setaria viridis (SETVI) (320 g/ha) was 100% in each case. For the same compound, the “Pre-emergence efficacy against LOLRI” value in the data set on Lolium rigidum (LOLRI) (320 g/ha) was determined as 100%. Further, the “Post-emergence efficacy against POLCO in %” value in data set [1] (application rate 80 g/ha) and in [1] (application rate 320 g/ha) was 100% throughout. Further, the “Post-emergence efficacy against KCHSC in %” value in the data set on Kochia scoparia (KCHSC) (80 g/ha) and in the data set on Kochia scoparia (KCHSC) (320 g/ha) was 90% each time. Moreover, in the data set with Kochia scoparia (KCHSC), the “Post-emergence efficacy against KCHSC” value is 90%. In addition, the “Pre-emergence efficacy against VIOTR in %” value in the data set on Viola tricolor (VIOTR) [2] (application rate 80 g/ha) and with Viola tricolor (VIOTR) [2] (application rate 320 g/ha) was 100% throughout. Besides, the “Pre-emergence efficacy against ALOMY” value in data set [3] (80 g/ha) is 90%; in [3] (320 g/ha) it was 100%. In addition, the “Post-emergence efficacy against VIOTR in %” value in the data set on Viola tricolor (VIOTR) [4] (application rate 80 g/ha) and in the data set on Viola tricolor (VIOTR) [4] (application rate 320 g/ha) was 100% each time. The “Post-emergence efficacy against POAAN” value in the data set with Poa annua (POAAN) (80 g/ha), with Poa annua (POAAN) (320 g/ha) and with Poa annua (POAAN) (1280 g/ha) was 90% in each case.
